Data published in ChEMBL document CHEMBL1201862, “PubChem BioAssay data set” (2004).
One block for each compound: values may come before it. Active and inactive are the calls of the source.

Experiments:
Cytochrome P450 2C9 = Cytochrome P450 2C9 (Homo sapiens, UniProt P11712)
[1] = target: Luciferin 4-monooxygenase (Photinus pyralis, UniProt P08659); experiment: firefly luciferase enzyme inhibitors, dose response, biochemical, luminescence (AID 1891)
[2] = Luminescence Cell-Based Dose Confirmation HTS to Identify Inhibitors of Platelet Dense Granule Release. [Related pubchem assays: 1663 (Primary HTS), 1678 (Summary of Project)]; format: functional
[3] = inhibitors of intracellular T. cruzi replication, confirmation, NIH3T3 host cells, beta-gal luminescence (AID 2044); format: functional, cell-based;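 note: intracellular parasites grown in NIH/3T3 mouse fibroblasts as host cells; luminescent beta-galactosidase reporter signal from transgenic T. cruzi replicating inside host cells; inhibitors lower the luminescence signal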
[4] = target: T1, Calpain-2 catalytic subunit (Sus scrofa, UniProt P43367); experiment: pig calpain II inhibitor potency, dose response, biochemical, fluorogenic peptide substrate (AID 1420); format: functional
T1 sequence (P43367 whole entry): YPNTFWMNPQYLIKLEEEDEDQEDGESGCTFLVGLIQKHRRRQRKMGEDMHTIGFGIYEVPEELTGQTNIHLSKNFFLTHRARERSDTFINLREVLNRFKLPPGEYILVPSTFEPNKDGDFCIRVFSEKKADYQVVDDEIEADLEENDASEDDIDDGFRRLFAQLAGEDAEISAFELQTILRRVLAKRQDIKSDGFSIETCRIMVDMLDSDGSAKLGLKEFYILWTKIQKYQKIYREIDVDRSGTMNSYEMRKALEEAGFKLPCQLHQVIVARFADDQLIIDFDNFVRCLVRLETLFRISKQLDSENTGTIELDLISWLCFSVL

[5] = cytotoxicity toward NIH3T3 fibroblasts, dose response, counter-screen, cell-based, ATP luminescence, mouse fibroblasts (AID 2010); format: functional;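 note: cells exposed to compound for about 90 hours before reading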
Cytochrome P450 2C19 = Cytochrome P450 2C19 (Homo sapiens, UniProt P33261); experiment: Cytochrome panel assay with activity outcomes. Panel member name: p450-cyp2c19 Compounds with AC50 equal or less than 10 uM are considered active; format: functional; conditions: read-out: AC50
Cytochrome P450 3A4 = Cytochrome P450 3A4 (Homo sapiens, UniProt P08684);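 note: CYP3A4 tested as one member of a cytochrome P450 panel screen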
[6] = control 3'UTR Renilla luciferase suppression, dose response, counter-screen for Shn3 inhibitor project, cell-based, Clone20-Shn3RL, cherry-picked (AID 624133); format: functional
[7] = Shn3 3'UTR reporter inhibitors, dose response, cell-based, Clone20 osteoblasts, firefly luciferase, cherry-picked (AID 624132); format: functional;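 note: firefly luciferase luminescence from reporter carrying the Shn3 3'UTR in osteoblasts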
[8] = HepG2 cell cytotoxicity, dose response, cytotoxicity control for Shn3 inhibitor project, CellTiter-Glo, cherry-picked (AID 624134); format: functional, cell-based
[9] = inhibitors of clade B AD8 Env fusion, dose response, cell-based, cherry-pick (AID 652062); format: functional;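 note: luciferase signal from cell-cell fusion driven by HIV-1 clade B AD8 Env; potency is for inhibitors of fusion seen as a drop in luminescence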
[10] = inhibitors of HIV Env-driven cell fusion, dose response, cherry-pick (AID 652057); format: functional, cell-based
Protein skinhead-1 = target: T2, Protein skinhead-1 (Caenorhabditis elegans, UniProt P34707); format: functional
T2 sequence (P34707 whole entry): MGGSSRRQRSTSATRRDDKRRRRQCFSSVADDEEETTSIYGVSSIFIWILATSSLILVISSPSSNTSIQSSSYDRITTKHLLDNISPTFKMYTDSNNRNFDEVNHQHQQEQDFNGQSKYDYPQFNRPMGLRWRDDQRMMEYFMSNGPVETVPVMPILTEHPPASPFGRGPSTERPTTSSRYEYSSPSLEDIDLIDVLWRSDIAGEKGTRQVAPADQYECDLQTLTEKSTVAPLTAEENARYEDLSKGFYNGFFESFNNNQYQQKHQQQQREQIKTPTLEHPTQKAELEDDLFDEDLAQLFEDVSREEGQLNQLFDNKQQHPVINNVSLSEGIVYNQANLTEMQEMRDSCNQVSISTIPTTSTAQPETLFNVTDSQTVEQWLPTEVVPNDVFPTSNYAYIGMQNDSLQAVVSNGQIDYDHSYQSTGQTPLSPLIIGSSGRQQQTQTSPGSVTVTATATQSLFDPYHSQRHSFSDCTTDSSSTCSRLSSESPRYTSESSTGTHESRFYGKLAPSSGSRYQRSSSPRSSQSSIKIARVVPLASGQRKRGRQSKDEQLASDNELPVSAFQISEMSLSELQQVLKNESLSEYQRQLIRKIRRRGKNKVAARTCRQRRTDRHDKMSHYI

cells [11] = format: functional, cell-based
cells [12] = format: functional, cell-based; remark: listed apart in the source
[13] = growth suppression of PTEN-null colon cells, dose response, cell-based, HCT116 PTEN knockout (AID 1047); format: functional;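 note: HCT116 colon tumor cells with PTEN knocked out; cells exposed to compound for 60 hours before readout; potency for loss of cell viability measured by luminescence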
[14] = growth suppression of beta-catenin-knockout colon cells, dose response, cell-based, HCT116, human colon tumor (AID 1045); format: functional;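 note: HCT116 colon tumor cells with beta catenin knocked out; cells exposed to compound for 60 hours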

Cytochrome P450 2C9, sequence (P11712 whole entry): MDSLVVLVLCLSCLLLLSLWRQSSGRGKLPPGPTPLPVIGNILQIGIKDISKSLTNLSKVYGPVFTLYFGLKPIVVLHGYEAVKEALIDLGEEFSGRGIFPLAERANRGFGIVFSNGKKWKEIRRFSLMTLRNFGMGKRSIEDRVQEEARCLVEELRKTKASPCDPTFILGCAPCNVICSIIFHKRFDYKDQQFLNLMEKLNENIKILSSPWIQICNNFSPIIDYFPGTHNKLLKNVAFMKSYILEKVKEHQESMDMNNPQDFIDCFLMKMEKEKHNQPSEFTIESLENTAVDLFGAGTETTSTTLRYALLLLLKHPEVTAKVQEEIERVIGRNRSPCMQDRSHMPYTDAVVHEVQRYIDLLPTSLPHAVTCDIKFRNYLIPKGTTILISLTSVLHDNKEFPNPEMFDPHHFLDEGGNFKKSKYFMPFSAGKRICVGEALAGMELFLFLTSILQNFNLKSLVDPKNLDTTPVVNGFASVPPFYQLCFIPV
Luciferin 4-monooxygenase, sequence (P08659 whole entry): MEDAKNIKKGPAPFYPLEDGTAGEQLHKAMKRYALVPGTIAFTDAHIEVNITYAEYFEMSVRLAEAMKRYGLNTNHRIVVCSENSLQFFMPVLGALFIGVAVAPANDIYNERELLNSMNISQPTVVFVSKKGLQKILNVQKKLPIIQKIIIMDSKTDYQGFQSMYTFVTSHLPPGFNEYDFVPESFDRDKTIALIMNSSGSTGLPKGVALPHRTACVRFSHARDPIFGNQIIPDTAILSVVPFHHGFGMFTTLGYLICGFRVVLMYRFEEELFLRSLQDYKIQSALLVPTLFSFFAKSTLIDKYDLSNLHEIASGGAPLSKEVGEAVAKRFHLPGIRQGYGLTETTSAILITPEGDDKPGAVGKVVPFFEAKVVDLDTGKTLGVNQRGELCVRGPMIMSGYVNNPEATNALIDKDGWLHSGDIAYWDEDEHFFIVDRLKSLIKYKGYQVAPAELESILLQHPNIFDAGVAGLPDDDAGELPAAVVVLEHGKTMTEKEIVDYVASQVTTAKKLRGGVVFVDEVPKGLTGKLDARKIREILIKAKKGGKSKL
Cytochrome P450 2C19, sequence (P33261 whole entry): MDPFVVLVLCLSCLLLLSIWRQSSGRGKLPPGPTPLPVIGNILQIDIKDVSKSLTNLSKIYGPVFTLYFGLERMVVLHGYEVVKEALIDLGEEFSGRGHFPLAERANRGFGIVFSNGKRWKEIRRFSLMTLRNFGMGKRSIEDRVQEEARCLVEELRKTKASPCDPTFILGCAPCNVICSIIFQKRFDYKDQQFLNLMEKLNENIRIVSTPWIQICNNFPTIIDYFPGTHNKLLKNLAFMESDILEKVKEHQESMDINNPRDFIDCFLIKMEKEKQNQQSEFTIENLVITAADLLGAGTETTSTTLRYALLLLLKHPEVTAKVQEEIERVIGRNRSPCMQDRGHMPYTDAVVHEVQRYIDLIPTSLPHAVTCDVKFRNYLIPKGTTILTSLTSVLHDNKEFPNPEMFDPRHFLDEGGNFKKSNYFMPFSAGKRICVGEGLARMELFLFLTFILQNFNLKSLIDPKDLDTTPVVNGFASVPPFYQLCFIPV
Cytochrome P450 3A4, sequence (P08684 whole entry): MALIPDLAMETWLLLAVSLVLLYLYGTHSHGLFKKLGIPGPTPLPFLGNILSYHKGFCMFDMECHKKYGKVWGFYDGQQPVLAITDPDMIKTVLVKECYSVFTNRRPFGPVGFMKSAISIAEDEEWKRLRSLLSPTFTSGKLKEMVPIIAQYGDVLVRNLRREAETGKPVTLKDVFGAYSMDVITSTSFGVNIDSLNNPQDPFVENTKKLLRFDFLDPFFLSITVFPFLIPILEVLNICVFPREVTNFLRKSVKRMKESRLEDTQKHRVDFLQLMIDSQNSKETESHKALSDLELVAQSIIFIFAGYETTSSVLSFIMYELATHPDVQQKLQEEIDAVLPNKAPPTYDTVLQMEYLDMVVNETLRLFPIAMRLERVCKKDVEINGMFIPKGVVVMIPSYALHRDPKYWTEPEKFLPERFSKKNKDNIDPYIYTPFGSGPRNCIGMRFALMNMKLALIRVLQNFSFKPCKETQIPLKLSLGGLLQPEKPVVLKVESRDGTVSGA

SMILES: O=S(=O)(c1ccccc1)N1CCCCC1c1cccnc1 (centres undefined)
AC50 (Cytochrome P450 2C9): inconclusive

SMILES: COc1cc(N/N=C/c2ccc(N(C)C)cc2)ncn1
EC50 [1]: 2.9 µM (active) | EC50 [2]: 0.989 µM (active)

SMILES: O=S(=O)(Cc1ccccc1)NCC1CCCN(Cc2ccc(F)c(F)c2)C1 (centres undefined)
EC50 [3]: 0.199 µM (active) | IC50 [4]: 17.6 µM (not active) | EC50 [5]: > 60 µM (not active)

AC50 (Cytochrome P450 2C19): 11.2 µM (inconclusive) | AC50 (Cytochrome P450 2C9): inconclusive | AC50 (Cytochrome P450 3A4): 12.6 µM (inconclusive)
SMILES: O=C(O/N=C\c1ccc(N2CCCCC2)c([N+](=O)[O-])c1)c1c(F)cccc1F

SMILES: O=C(NCc1cccc(Cl)c1)c1cc(COc2ccc3ncccc3c2)on1
AC50 [6]: 14.8 µM (active) | AC50 [7]: 3.05 µM (active) | AC50 [8]: 38.7 µM (active)

SMILES: C[C@H](CO)N1C[C@H](C)[C@H](CN(C)S(=O)(=O)c2ccccc2)Oc2ccc(NC(=O)Cc3ccccc3)cc2CC1=O
AC50 [9]: < 0.26 µM (active) | AC50 [10]: < 0.26 µM (active)

IC50 [4]: 12.6 µM (not active)
SMILES: COc1ccc(C(=O)CSc2nc(C(C)(C)C)nc3ccccc23)cc1

IC50 (Protein skinhead-1): > 100 µM (inactive)
SMILES: COc1ccc(CNC(C)C2COc3ccccc3O2)c(OC)c1 (centres undefined)

IC50 (Protein skinhead-1): > 100 µM (inactive)
SMILES: CCN(CC)S(=O)(=O)c1ccc2c(c1)nc(SC(C)C(N)=O)n2-c1ccc(OC)cc1 (centres undefined)

SMILES: CCC(=O)N1CCN(c2nc3ccc(Br)cc3s2)CC1
EC50 (cells [11]): > 350 µM (not active) | EC50 (cells [12]): 144 µM (active) | IC50 (Protein skinhead-1): 58.6 µM (inactive)

IC50 [4]: 6.17 µM (not active)
SMILES: O=C(NCCc1nnc2ccc(NCc3ccc(Cl)cc3)nn12)c1ccccc1

IC50 [4]: < 0.4 µM (not active)
SMILES: O=C(COc1cccc2cccnc12)NNC(=O)Nc1ccccc1

IC50 (Protein skinhead-1): > 100 µM (inactive)
SMILES: COc1cccc(NC(=O)C(C)Oc2ccccc2)c1 (centres undefined)

IC50 [4]: 15.1 µM (not active)
SMILES: Cc1[nH]c2ccccc2c1/C=N/NC(=S)NCc1ccccc1

SMILES: COc1ccc(CC(=O)Nc2cccc(-c3nnc(-c4ccccc4)o3)c2)cc1OC
EC50 [13]: 25.4 µM (active) | EC50 (cells [11]): > 350 µM (not active) | EC50 (cells [12]): > 350 µM (not active) | EC50 [14]: 69.6 µM (active)

IC50 (Protein skinhead-1): > 100 µM (inactive)
SMILES: Cc1c(C)n(C)c2ccc(C(=O)NCCCN(C)C3CCCCC3)cc12

SMILES: COC(=O)CN1C(=O)[C@H]2[C@@H](c3ccc(C)o3)N3C(=O)CN(CC4CC4)C(=O)[C@@]3(Cc3ccccc3)[C@H]2C1=O
EC50 (cells [11]): > 350 µM (not active) | EC50 (cells [12]): > 350 µM (not active)

AC50 (Cytochrome P450 2C9): inconclusive
SMILES: CNc1nc(C)cc(C)c1S(=O)(=O)c1ccc(C)cc1

SMILES: CCn1ccnc1C(O)c1ccccc1OC (centres undefined)
EC50 (cells [11]): > 350 µM (not active) | EC50 (cells [12]): > 350 µM (not active)
